The test system of one experiment is EGFR. As to the kind of experiment: EGF uptake and EGF-induced EGFR phosphorylation. Type of experiment: cell-based. Particulars: Chang liver cells. The protocol: (§1) Surface receptor functional assessment: After treatment, cells was incubated with 500 ng/ml Alexa 488-labeled EGF in DMEM containing 1% BSA, 50 μg/ml Alexa-488-labeled transferrin for 10 min, or 10 μg/ml Alexa 488-labeled AcLDL for 30 min in growth medium, and then washed with cold HBSS four times before fixation with formaldehyde at room temperature. Cells were also trypsinzed and ligand uptake quantified by flow cytometry (FACS Calibur). For protein phosphorylation studies, cell lysates were also collected 5 min after stimulation with ligands. Western blotting and indirect immunofluorescence: Cells were lysed in cell lysis buffer (Cell Signaling, Danvers, Mass.). Lysate protein concentration was measured by the Biorad DC protein assay. Equal amounts of proteins were separated by MOPS-SDS-PAGE, then transferred to poly(vinylidene difluoride) membranes (Invitrogen, Carlsbad, Calif.). Membranes were then blocked and the signal detected with a BM Chemiluminescence Blotting kit (Roche Diagnostics, Basel, Switzerland), BM POD precipitating blotting substrate (Roche Diagnostics, Basel, Switzerland), or Supersignal West Femto blotting kit (Pierce, Rockford, Ill.) according to the manufacturer's instructions. […] For indirect immunofluorescence studies, formaldehyde-fixed cells were permeablized with 0.3% Triton for 10 min, blocked with 1% BSA for 30 min, then detected with antibodies. […]

A further experiment deals with FGFR. In words: bFGF-induced FGFR phosphorylation. Type of experiment: cell-based. The settings on record: in the presence of 0.3 mM DTT; Chang liver cells; FIG. 8d. As for the experimental part:
as §1

For the next experiment, the system named is IGF-1R. As to the kind of experiment: IGF-1-induced IGF-1R phosphorylation. Type of experiment: cell-based. The settings on record: in the presence of 0.3 mM DTT; Chang liver cells; FIG. 8c. As for the experimental part: as §1
The test system of another experiment is CD71. As to the kind of experiment: transferrin uptake (mediated by CD71) by HPAECs. It is filed as cell-based, human. The settings on record: 0.5 mM DTT, 30 min, flow cytometry. The protocol:
(§2) Surface receptor functional assessment: After treatment, cells was incubated with 500 ng/ml Alexa 488-labeled EGF in DMEM containing 1% BSA, 50 μg/ml Alexa-488-labeled transferrin for 10 min, or 10 μg/ml Alexa 488-labeled AcLDL for 30 min in growth medium, and then washed with cold HBSS four times before fixation with formaldehyde at room temperature. Cells were also trypsinzed and ligand uptake quantified by flow cytometry (FACS Calibur). For protein phosphorylation studies, cell lysates were also collected 5 min after stimulation with ligands.
(A flow cytometer gives signals particle by particle.)

The subject of a further experiment is LOX-1. As to the kind of experiment: acetylated LDL (AcLDL) uptake by HPAECs. Particulars: for uptake of acetylated LDL (AcLDL) by HPAECs: mitochondrial inhibitors for 8 hr, FIG. 5. Type of experiment: cell-based, human. The protocol:
as §2

Experiment [1] relates to protein disulfides in BAECs. As to the kind of experiment: in situ fluorescence imaging of cellular protein disulfides (BAECs). It is filed as cell-based, Bovine. Particulars: for protein disulfide formation: BAECs, mitochondrial inhibitors, FIG. 1b. The protocol:
(§3) Detection of cellular disulfide-containing proteins: We developed a method for imaging disulfide-containing proteins in situ. Methanol-fixed cells were treated with 200 mM iodoacetamide in 100 mM Tris, pH 8.3, 5 mM EDTA at 37° C. for 1 hour to block thiols. The cells were then washed six times with Tris-buffered saline, pH 8.0, 5 mM EDTA, after which they were incubated with 5 mM EDTA, 1 mM tris(2-carboxyethyl) phosphine, pH 8.3, at room temperature to reduce disulfides and with 1 mM 5-iodoacetamidofluorescein (5-IAF) in 100 mM Tris to label the resulting thiols for 1 hour. Excess dye was removed by washing the cells repeatedly with TBS. Stained cells fixed to slides were then treated with Prolonged Antifade Mounting Medium, and cell nuclei were counterstained with DAPI. Fluorescent images were taken with a Nikon fluorescence TE 2000 microscope. Fluorescence intensity was quantified by subtracting background fluorescence, then integrating the image with the NIH IMAGEJ program and normalizing by cell number as determined by DAPI fluorescence. Four fields magnified×20 were analyzed per experiment, with 100-200 cells counted per sample.

The next experiment concerns vWF. As to the kind of experiment: multimeric vWF immunoblot / immunofluorescence in HPAECs. Type of experiment: cell-based, human. The settings on record: FIG. 1i. As for the experimental part: (§4) Western blotting and indirect immunofluorescence: Cells were lysed in cell lysis buffer (Cell Signaling, Danvers, Mass.). Lysate protein concentration was measured by the Biorad DC protein assay. Equal amounts of proteins were separated by MOPS-SDS-PAGE, then transferred to poly(vinylidene difluoride) membranes (Invitrogen, Carlsbad, Calif.). Membranes were then blocked and the signal detected with a BM Chemiluminescence Blotting kit (Roche Diagnostics, Basel, Switzerland), BM POD precipitating blotting substrate (Roche Diagnostics, Basel, Switzerland), or Supersignal West Femto blotting kit (Pierce, Rockford, Ill.) according to the manufacturer's instructions. For protein inter-subunit disulfide bond detection, cells were lysed in cell lysis buffer containing 200 mM N-ethyl-maleimide and incubated at 37° C. for 1 hr. LDS sample buffer with or without DTT was added to cell lysates, and proteins were separated by MOPS-SDS-PAGE. For indirect immunofluorescence studies, formaldehyde-fixed cells were permeablized with 0.3% Triton for 10 min, blocked with 1% BSA for 30 min, then detected with antibodies. Primary antibodies used in this study include monoclonal or polyclonal antibodies against CD98, PECAM, endoglin, vWF, PDI, pEGFR, EGFR, FGFR, and CD71 from Santa Cruz; against actin, from Sigma, St. Louis, Mo.; against pFGFR, pIGF1R, and IGF1R from Cell Signaling (Danvers, Mass.); against thioredoxin, MnSOD, catalase, and GAPDH from Abcam, Cambridge, Mass.; and against LOX-1 from Serotec, Raleigh, N.C. All secondary fluorescent-labeled or horseradish peroxidase-conjugated antibodies were obtained from Jackson Immunoresearch, West Grove, Pa.
Background: A western blot detects proteins with antibodies after separation by electrophoresis.

Experiment [2] has as its system protein disulfides in Chang liver cells. In words: in situ fluorescence imaging of cellular protein disulfides (Chang liver cells). Type of experiment: cell-based. Particulars: CCCP for 4 hr, FIG. 1a. As for the experimental part: as §3
For a further experiment, the system named is Endoglin. In words: endoglin disulfide-dependent detection and localization in HPAECs. It is filed as cell-based, human. The settings on record: non-reducing immunoblot; FIG. 1j. As for the experimental part: as §4, with “Primary antibodies used in this study include monoclonal or polyclonal antibodies against CD98, PECAM, endoglin, vWF, PDI, pEGFR, EGFR, FGFR, and CD71 from Santa Cruz; against actin, from Sigma, St. Louis, Mo.; against pFGFR, pIGF1R, and IGF1R from Cell Signaling (Danvers, Mass.); against thioredoxin, MnSOD, catalase, and GAPDH from Abcam, Cambridge, Mass.; and against LOX-1 from Serotec, Raleigh, N.C. All secondary fluorescent-labeled or horseradish peroxidase-conjugated antibodies were obtained from Jackson Immunoresearch, West Grove, Pa.” left out

The subject of another experiment is CD98. In words: CD98 heterodimer blot in Chang liver cells. Particulars: mitochondrial inhibitor treated. Type of experiment: cell-based. The protocol: as §4, with “Primary antibodies used in this study include monoclonal or polyclonal antibodies against CD98, PECAM, endoglin, vWF, PDI, pEGFR, EGFR, FGFR, and CD71 from Santa Cruz; against actin, from Sigma, St. Louis, Mo.; against pFGFR, pIGF1R, and IGF1R from Cell Signaling (Danvers, Mass.); against thioredoxin, MnSOD, catalase, and GAPDH from Abcam, Cambridge, Mass.; and against LOX-1 from Serotec, Raleigh, N.C. All secondary fluorescent-labeled or horseradish peroxidase-conjugated antibodies were obtained from Jackson Immunoresearch, West Grove, Pa.” left out

Another experiment deals with GRP78. In words: ER stress marker induction, GRP78. Particulars: compared to tunicamycin and thapsigargin treatments. It is filed as cell-based. As for the experimental part: as §4, with “Primary antibodies used in this study include monoclonal or polyclonal antibodies against CD98, PECAM, endoglin, vWF, PDI, pEGFR, EGFR, FGFR, and CD71 from Santa Cruz; against actin, from Sigma, St. Louis, Mo.; against pFGFR, pIGF1R, and IGF1R from Cell Signaling (Danvers, Mass.); against thioredoxin, MnSOD, catalase, and GAPDH from Abcam, Cambridge, Mass.; and against LOX-1 from Serotec, Raleigh, N.C. All secondary fluorescent-labeled or horseradish peroxidase-conjugated antibodies were obtained from Jackson Immunoresearch, West Grove, Pa.” left out

For the next experiment, the system named is GRP94. In words: ER stress marker induction, GRP94. It is filed as cell-based. Particulars: compared to tunicamycin and thapsigargin treatments. The protocol: as §4, with “Primary antibodies used in this study include monoclonal or polyclonal antibodies against CD98, PECAM, endoglin, vWF, PDI, pEGFR, EGFR, FGFR, and CD71 from Santa Cruz; against actin, from Sigma, St. Louis, Mo.; against pFGFR, pIGF1R, and IGF1R from Cell Signaling (Danvers, Mass.); against thioredoxin, MnSOD, catalase, and GAPDH from Abcam, Cambridge, Mass.; and against LOX-1 from Serotec, Raleigh, N.C. All secondary fluorescent-labeled or horseradish peroxidase-conjugated antibodies were obtained from Jackson Immunoresearch, West Grove, Pa.” left out

The subject of the next experiment is HPAECs. As to the kind of experiment: mitochondrial membrane potential by JC-1 fluorescence. Particulars: after CCCP treatment, FIG. 5b. Type of experiment: cell-based, human. As for the experimental part: Mitochondrial membrane potential measurement: Cells were incubated with medium containing 1 ug/ml JC-1 for […], washed with HBSS, and then observed by fluorescence microscopy immediately. Alternatively, fluorescence was measured with a GEMINI XPS microplate reader, with an excitation wavelength of 488 nm and an emission wavelength of 536 nm, as well as an excitation wavelength of 528 nm and an emission wavelength 590 nm. Mitochondrial membrane potential was expressed as the ratio of emission at 590 nm to that at 536 nm.

Experimental findings from US20080299542A1, “IDENTIFICATION OF OXIDATIVELY MODIFIED PEPTIDE SEQUENCES IN THE PROTEOME (LOSCALZO)” (priority 2007, published 2008) are described below.

The structures appear in SMILES notation. “Also recorded” adds a separate entry of the source.

On to `O[C@H](CS)[C@H](O)CS` (racemic) [DTT, dithiothreitol], for which, in the experiment with EGFR (0.5 mM DTT, 30 min, flow cytometry), the “uptake of EGF” value is “did not change”. For the same compound, in the experiment with EGFR (in the presence of 0.5 mM DTT), the “EGFR activation by EGF” value is on record as “fully activated”. In the experiment on FGFR, the “phosphorylation of FGFR” value is “completely inhibited”. Moreover, in the experiment with IGF-1R, the “phosphorylation of IGF-1Rβ” value was “completely inhibited”. The uptake of transferrin result in the experiment with CD71 is on record as “did not change”. Also, the “uptake of AcLDL by HPAECs” value with LOX-1 (0.5 mM DTT, 30 min, flow cytometry, FIG. 8a) is “decreased”.

Regarding `CCCCCC[C@H]1C(=O)O[C@H](C)[C@H](NC(=O)c2cccc(NC=O)c2O)C(=O)O[C@@H](C)[C@@H]1OC(=O)CC(C)C` [ATM, antimycin A], the protein disulfide formation entry in [1] was “least effective”.

As to `CCCCS(=N)(=O)CCC(N)C(=O)O` (stereo not shown) [BSO, buthionine sulfoximine], the “disulfide-linked multimeric vWF” value in the experiment with vWF is “increased”.

With `N#CC(C#N)=NNc1cccc(Cl)c1` [CCCP, carbonylcyanide m-chlorophenylhydrazone], the protein disulfide formation entry in experiment [1] is “decreased; also recorded: most effective”. Moreover, the “effect on protein disulfide formation in MitoCAT overexpressing cells” value in [1] (CCCP for 8 hrs, FIG. 4) is “no longer had any effect”. The “overall protein disulfide signal” value in experiment [2] is listed as “decreased”. Besides, the “uptake of acetylated LDL (AcLDL) by HPAECs” value in the experiment on LOX-1 is given as “decreased”. Also, in the experiment on vWF, the “disulfide-linked multimeric vWF” value is “dissociation of disulfide-linked multimeric vWF”. In the experiment with Endoglin, the “endoglin detected by P4A4 antibody” value is on record as “less endoglin was detected”. For the same compound, the “heterodimer CD98” value with CD98 is listed as “remained intact”. For the same compound, the “upregulation of GRP78” value in the experiment with GRP78 was “did not induce significant upregulation”. The “upregulation of GRP94” value in the experiment on GRP94 was “did not induce significant upregulation”. Further, in the experiment on HPAECs, the “mitochondrial membrane potential (MMP)” value is reported as “immediate loss”.

With `C[C@]12CC[C@H](O)CC1=CC[C@@H]1[C@@H]2CC[C@]2(C)C(=O)CC[C@@H]12` [DHEA, dehydroepiandrosterone], the “disulfide-linked multimeric vWF” value with vWF was “increased”.

`O=C(CC(=O)C(F)(F)F)c1cccs1` [TTFA, thienoyltrifluoroacetone]: the protein disulfide formation result in [1] is reported as “decreased”. Besides, in the experiment with LOX-1, the “uptake of acetylated LDL (AcLDL) by HPAECs” value is “decreased”. In the experiment on Endoglin, the “endoglin detected by P4A4 antibody” value is recorded as “less endoglin was detected”.

On to `O=c1c2ccccc2[se]n1-c1ccccc1` [ebselen], for which the “inhibition of disulfide formation” value in experiment [1] (FIG. 1c, p<0.01, cell type not stated) is on record as 55%.

`CO/C(=C/C(N)=O)[C@H](C)[C@H](/C=C/c1csc(-c2csc([C@@H](C)/C=C/C=C/C(C)C)n2)n1)OC` [myxothiazol]: in experiment [1], the protein disulfide formation entry is “decreased”.

As for `C=C(C)[C@H]1Cc2c(ccc3c2O[C@@H]2COc4cc(OC)c(OC)cc4[C@@H]2C3=O)O1` [rotenone], the protein disulfide formation entry in experiment [1] is “decreased”.
